Experimental findings from patent US20010049372A1, “Antiviral nucleoside analogues” (BioChem Pharma Inc., priority 1998, published 2001) are described below.

Each structure is given as a SMILES string. Read-outs that look alike come from different tables or passages of the source.

One test has as its system HIV-1IIIB. Put plainly: Anti-HIV-1 antiviral assay with HIV-1IIIB in various cell types (RT activity). The test is classed as cell-based. How it is done:
(§1) ANTIVIRAL ASSAYS. The anti-HIV-1 activity of the compound A (−) were assessed by employing HIV-1IIIB in a variety of cell types as previously described (Gu et al., 1992, 1994, 1999; Rando et al., 1995; Salomon et al., 1994). Briefly, cells were incubated with virus at a multiplicity of infection (MOI) of 0.005 for T cell assays and an MOI of 0.5 for monocytic cell assays for 3 hrs. Unbound virus was then removed by washing the cells, followed by seeding the cells into a 96-well plate. The infected cells were cultured in the presence of a serial concentrations of the test compound for 5-7 days. The anti-HIV-1 efficacy was determined by testing for HIV-1 RT activity or p24 level in the cell culture supernatants. All assays were performed in duplicate. Zidovudine and/or lamivudine were used as controls in each experiment.
Activity of the compound A (−) against HIV-1 in various cells. Anti-HIV-1 activity of the compound A (−) were tested in different types of cells, including human peripheral […] cells (PBMCs), T-cell (MT-2 and MT-4) and monocytic cell (U937) lines. The compound A (−) had submicromolar EC50s against HIV-1IIIB in different types of cells tested (Table 2).

A further test concerns 105/A (wt). Briefly: Drug-resistant clinical isolates in PBMCs (p24). In kind it is cell-based, HIV-1. The conditions noted are these: Human immunodeficiency virus 1, PBMC. The method, then:
as §1
(§2) Clinical strains were isolated from PBMCs of HIV-1 infected individuals through co-culture with PBMCs from normal dornors. To determine the RT genotype of the HIV-1 clinical isolates, the proviral DNA was extracted from infected CD4^+ T-cells or PBMCs and the complete RT coding regions were amplified by PCR as previously reported (Gu et al 1992). The PCR product was purified and then directly sequenced using primer RTS (5′-CCAAAAGTTAAACAATGGC-3′) which is located at the 5′ portion of the RT coding region (nucleotide 2603-2621 of HXB2-D coordinates). Antiviral activity was evaluated as described in example 10.

Another test has as its system 105/F (zidovudine^R). Briefly: Drug-resistant clinical isolates in PBMCs (p24). The test is classed as cell-based, HIV-1. The conditions noted are these: Human immunodeficiency virus 1, PBMC. The method, then:
as §1, §2

In the next test the test system is CCR15 (Lamivudine^R). Briefly: Drug-resistant clinical isolates in PBMCs (p24). In kind it is cell-based, HIV-1. The conditions noted are these: Human immunodeficiency virus 1, PBMC. The method, then: as §1, §2
Another test deals with CCR18 (Lamivudine^R). Briefly: Drug-resistant clinical isolates in PBMCs (p24). The test is classed as cell-based, HIV-1. The conditions noted are these: Human immunodeficiency virus 1, PBMC. How it is done: as §1, §2
Another test has as its system CCR19 (Lamivudine^R). Briefly: Drug-resistant clinical isolates in PBMCs (p24). In kind it is cell-based, HIV-1. The note with it: Human immunodeficiency virus 1, PBMC. How it is done:
as §1, §2

The test system of a further test is NNRTI^R. Briefly: Recombinant drug resistant HIV-1 variants (RT activity). The note with it: Human immunodeficiency virus 1. The test is classed as cell-based. The method, then:
as §1
(§3) Recombinant HIV-1 variants were prepared by introducing the designed mutations into HXB2-D by site-directed mutagenesis as described (Gu et al. 1992, 1994). The virus stocks were prepared by transfecting MT-4 cells with infectious viral DNA constructs. Antiviral activity of the compound A (−) was evaluated as described in example 10.

The next test deals with HXB2-D (wt). Briefly: Recombinant HIV-1 variants (RT activity). The test is classed as cell-based. The conditions noted are these: Human immunodeficiency virus 1, HXB2. The method, then: as §1, §3
For another test, the system named is PI^R. Briefly: Recombinant drug resistant HIV-1 variants (RT activity). The note with it: Human immunodeficiency virus 1. In kind it is cell-based. The method, then:
as §1, §3

Regarding `Nc1nc(NC2CC2)c2ncn([C@H]3C=C[C@@H](CO)C3)c2n1` [Abacavir, abacavir], the EC50 in the test with HIV-1IIIB (Human immunodeficiency virus 1, MT2, HIV-1IIIB, MT-2 cells, determined by RT activity, read-out: EC50 (μM) ± S.D. in MT-2 cells) is 0.1 µM. The IC50 in the test on 105/A (wt) is under 30 nM; in the test on 105/F (zidovudine^R) it was 70 nM; with CCR15 (Lamivudine^R), 220 nM; in the test on CCR18 (Lamivudine^R) it was 1300 nM; in the test on CCR19 (Lamivudine^R) it was 580 nM.
Take `Nc1ncnc2c1ncn2CCOCP(=O)(O)O` [Adefovir, adefovir]: the IC50 in the test with 105/A (wt) amounted to 2000 nM; in the test with 105/F (zidovudine^R) it was 7000 nM; with CCR15 (Lamivudine^R) it was 800 nM; in the test with CCR18 (Lamivudine^R), 2100 nM; in the test on CCR19 (Lamivudine^R), 2300 nM.
Regarding `Cc1cn([C@H]2C=C[C@@H](CO)O2)c(=O)[nH]c1=O` [Stavudine, stavudine], in the test with HIV-1IIIB (Human immunodeficiency virus 1, MT2, read-out: EC50 (μM) ± S.D. in MT-2 cells), the EC50 is 0.38 ± 0.26 µM. Further, the IC50 in the test on 105/A (wt) came out at 63 nM; in the test on 105/F (zidovudine^R), 120 nM; in the test with CCR15 (Lamivudine^R), 60 nM; with CCR18 (Lamivudine^R) it was 49 nM; with CCR19 (Lamivudine^R) it was 50 nM.
On to `Cc1ccnc2c1NC(=O)c1cccnc1N2C1CC1` [nevirapine], for which, in the test with NNRTI^R, the EC50 is over 10 µM.
For the molecule `CC(C)(C)NC(=O)[C@@H]1C[C@@H]2CCCC[C@@H]2CN1C[C@@H](O)[C@H](Cc1ccccc1)NC(=O)[C@H](CC(N)=O)NC(=O)c1ccc2ccccc2n1` [saquinavir], the EC50 in the test with HXB2-D (wt) is 1.5 nM; in the test with PI^R, 28 nM.
